Results reported in ChEMBL document CHEMBL4422621, “Novel chalcone and flavone derivatives as selective and dual inhibitors of the transport proteins ABCB1 and ABCG2” (Eur J Med Chem, 2019).

Legend:
[1] = biological target: ATP-dependent translocase ABCB1 (Homo sapiens, UniProt P08183); experiment: (§1) Inhibition of ABCB1 in human A2780/ADR cells preincubated for 30 mins followed by calcein AM addition and measured every 60 secs for 1 hr by fluorescence assay; assay type: cell-based
[2] = biological target: T1, Broad substrate specificity ATP-binding cassette transporter ABCG2 (Homo sapiens, UniProt Q9UNQ0); experiment: Inhibition of ABCG2 (unknown origin) expressed in MDCK II BCRP cells assessed as effect on pheophorbide A accumulation after 120 mins by flow cytometric analysis; assay type: cell-based
T1 sequence (Q9UNQ0 whole entry): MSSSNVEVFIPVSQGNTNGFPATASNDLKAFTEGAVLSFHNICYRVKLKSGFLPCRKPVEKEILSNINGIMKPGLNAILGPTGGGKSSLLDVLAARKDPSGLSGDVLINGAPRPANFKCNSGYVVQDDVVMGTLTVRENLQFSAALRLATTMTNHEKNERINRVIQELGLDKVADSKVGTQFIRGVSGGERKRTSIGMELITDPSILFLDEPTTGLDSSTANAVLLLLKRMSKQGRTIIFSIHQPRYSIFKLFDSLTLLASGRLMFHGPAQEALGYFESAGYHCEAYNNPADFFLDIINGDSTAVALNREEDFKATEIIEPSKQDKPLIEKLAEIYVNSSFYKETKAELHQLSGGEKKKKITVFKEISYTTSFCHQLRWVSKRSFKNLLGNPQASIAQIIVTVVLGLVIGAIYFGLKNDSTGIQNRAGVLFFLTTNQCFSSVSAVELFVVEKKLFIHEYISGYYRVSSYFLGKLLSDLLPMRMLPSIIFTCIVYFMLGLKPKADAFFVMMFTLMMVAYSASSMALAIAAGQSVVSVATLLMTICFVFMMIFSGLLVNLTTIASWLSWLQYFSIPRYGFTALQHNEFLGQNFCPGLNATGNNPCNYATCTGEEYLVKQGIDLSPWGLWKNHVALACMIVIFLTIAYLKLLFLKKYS

ABCG2 (BCRP) [3] = biological target: T2, ABCG2 (BCRP) (Homo sapiens, UniProt Q9UNQ0); experiment: (§2) Inhibition of ABCG2 (unknown origin) expressed in MDCK II BCRP cells assessed as effect on heophorbide A accumulation at 5 to 10 uM after 120 mins by flow cytometric analysis relative to control; assay type: cell-based; details: MDCK II BCRP cells expressing ABCG2, probe pheophorbide A
T2 sequence (Q9UNQ0 whole entry): T1 sequence (Q9UNQ0 whole entry)

[4] = biological target: Multidrug resistance-associated protein 1 (Homo sapiens, UniProt P33527); experiment: Inhibition of ABCC1 in human […] cells preincubated for 30 mins followed by calcein AM addition and measured every 60 secs for 1 hr by fluorescence assay; assay type: cell-based
ABCG2 (BCRP) [5] = experiment: Therapeutic index, ratio of GI50 for MDCK2 cells expressing BCRP (unknown origin) to EC50 for ABCG2 (unknown origin) co-expressed in MDCK2 cells expressing BCRP (unknown origin); assay type: toxicity, cell-based; details: dog
[6] = Growth inhibition of MDCK2 cells expressing BCRP (unknown origin) after 72 hrs by MTT assay; assay type: ADME, cell-based, Canis lupus familiaris, MDCK-II; details: dog
[7] = Growth inhibition of MDCK2 cells after 72 hrs by MTT assay; assay type: cell-based, Canis lupus familiaris, MDCK-II; details: dog
[8] = Growth inhibition of human A2780 cells after 72 hrs by MTT assay; assay type: cell-based
[9] = Growth inhibition of human A2780/ADR cells after 72 hrs by MTT assay; assay type: cell-based
ABCB1 (P-gp) [10] = experiment: Therapeutic index, ratio of GI50 for human A2780/ADR cells to EC50 for ABCB1 in human A2780/ADR cells; assay type: toxicity, cell-based
[11] = biological target: T1, Broad substrate specificity ATP-binding cassette transporter ABCG2; experiment: as §2; assay type: cell-based; details: 2 h
ABCB1 (P-gp) [12] = biological target: ABCB1 (P-gp) (Homo sapiens, UniProt P08183); experiment: as §1; assay type: cell-based; details: human, A2780/ADR cells, probe calcein AM; read-out: Imax
ABCB1 (P-gp) (Homo sapiens, UniProt P08183), sequence (P08183 whole entry): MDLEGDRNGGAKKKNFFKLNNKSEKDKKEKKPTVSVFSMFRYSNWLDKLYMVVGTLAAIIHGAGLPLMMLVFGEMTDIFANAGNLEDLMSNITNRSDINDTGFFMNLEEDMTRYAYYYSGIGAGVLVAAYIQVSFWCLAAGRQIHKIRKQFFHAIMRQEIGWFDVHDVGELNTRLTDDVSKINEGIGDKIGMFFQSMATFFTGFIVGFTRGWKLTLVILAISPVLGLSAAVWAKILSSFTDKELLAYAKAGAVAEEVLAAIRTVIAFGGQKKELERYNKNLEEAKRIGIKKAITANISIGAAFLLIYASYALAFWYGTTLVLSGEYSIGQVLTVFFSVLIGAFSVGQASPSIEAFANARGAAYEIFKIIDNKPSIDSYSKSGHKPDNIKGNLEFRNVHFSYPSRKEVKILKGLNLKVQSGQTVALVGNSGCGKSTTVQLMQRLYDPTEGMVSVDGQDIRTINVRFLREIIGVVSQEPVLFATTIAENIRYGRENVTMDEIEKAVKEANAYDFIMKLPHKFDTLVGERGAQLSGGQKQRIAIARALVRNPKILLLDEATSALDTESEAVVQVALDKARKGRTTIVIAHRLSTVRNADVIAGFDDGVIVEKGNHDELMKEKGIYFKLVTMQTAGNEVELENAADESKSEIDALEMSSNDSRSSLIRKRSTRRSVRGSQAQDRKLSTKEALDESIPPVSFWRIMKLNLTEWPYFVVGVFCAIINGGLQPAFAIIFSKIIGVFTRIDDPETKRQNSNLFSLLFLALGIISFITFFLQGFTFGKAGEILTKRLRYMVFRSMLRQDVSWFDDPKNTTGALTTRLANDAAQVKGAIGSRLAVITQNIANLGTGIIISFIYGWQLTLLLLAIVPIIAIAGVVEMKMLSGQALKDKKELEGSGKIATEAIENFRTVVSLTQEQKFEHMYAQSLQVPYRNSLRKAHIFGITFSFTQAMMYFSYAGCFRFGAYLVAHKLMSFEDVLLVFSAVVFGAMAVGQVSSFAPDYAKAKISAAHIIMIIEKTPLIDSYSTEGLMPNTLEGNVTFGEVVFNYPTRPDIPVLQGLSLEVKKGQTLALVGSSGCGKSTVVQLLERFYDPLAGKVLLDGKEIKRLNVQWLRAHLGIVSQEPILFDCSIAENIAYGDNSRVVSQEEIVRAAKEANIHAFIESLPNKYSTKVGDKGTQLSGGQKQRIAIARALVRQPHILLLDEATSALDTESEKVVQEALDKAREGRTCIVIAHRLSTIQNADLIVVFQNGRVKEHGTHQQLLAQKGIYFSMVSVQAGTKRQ

ATP-dependent translocase ABCB1, sequence (P08183 whole entry): as above
Multidrug resistance-associated protein 1, sequence (P33527 whole entry): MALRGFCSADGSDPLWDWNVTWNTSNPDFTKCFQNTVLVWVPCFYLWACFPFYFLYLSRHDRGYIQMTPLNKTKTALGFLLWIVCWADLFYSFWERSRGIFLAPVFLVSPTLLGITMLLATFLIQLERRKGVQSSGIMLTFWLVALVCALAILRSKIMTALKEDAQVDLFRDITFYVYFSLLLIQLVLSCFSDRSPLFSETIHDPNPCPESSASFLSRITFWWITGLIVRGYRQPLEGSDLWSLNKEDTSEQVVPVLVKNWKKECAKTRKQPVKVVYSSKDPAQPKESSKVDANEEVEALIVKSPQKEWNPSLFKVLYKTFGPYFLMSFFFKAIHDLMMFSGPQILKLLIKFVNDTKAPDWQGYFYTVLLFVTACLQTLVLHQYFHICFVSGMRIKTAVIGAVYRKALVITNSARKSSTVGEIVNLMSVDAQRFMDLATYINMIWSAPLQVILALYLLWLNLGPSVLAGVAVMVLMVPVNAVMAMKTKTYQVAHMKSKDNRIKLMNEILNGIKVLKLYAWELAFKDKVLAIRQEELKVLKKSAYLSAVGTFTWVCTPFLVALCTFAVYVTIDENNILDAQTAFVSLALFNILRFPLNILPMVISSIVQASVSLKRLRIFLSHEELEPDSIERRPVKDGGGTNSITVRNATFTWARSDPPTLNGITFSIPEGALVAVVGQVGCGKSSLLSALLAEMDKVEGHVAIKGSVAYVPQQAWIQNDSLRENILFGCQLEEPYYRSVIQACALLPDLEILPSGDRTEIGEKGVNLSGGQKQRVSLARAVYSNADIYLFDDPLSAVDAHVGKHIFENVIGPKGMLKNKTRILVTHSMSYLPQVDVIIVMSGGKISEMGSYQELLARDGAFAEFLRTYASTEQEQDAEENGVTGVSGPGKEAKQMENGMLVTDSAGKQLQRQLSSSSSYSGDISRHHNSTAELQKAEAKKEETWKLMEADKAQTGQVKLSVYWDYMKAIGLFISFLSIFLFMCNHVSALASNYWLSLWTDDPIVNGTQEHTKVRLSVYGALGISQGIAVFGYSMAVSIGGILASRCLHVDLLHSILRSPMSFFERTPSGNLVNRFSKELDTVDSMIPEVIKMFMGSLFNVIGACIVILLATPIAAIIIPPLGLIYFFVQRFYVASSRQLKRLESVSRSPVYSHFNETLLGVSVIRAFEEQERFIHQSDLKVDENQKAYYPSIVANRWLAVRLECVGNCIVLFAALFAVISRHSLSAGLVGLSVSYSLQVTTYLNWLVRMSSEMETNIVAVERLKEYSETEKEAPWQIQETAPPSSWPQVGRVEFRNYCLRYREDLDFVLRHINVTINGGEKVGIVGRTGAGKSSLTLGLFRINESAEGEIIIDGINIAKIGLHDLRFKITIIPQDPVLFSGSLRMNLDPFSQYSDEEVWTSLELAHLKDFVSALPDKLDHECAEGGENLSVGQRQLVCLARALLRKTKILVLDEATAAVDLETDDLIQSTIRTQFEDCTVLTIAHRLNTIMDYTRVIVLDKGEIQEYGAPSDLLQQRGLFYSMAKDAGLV

Which IC50 [1] does the source give for COc1cc(/C=C/C(=O)c2cccc(OCC(=O)Nc3ccc4c(c3)COC4=O)c2)cc(OC)c1OC here?
Its IC50 is 11.7 µM.

What about the IC50 [2] of the same molecule?
Its IC50 is 9.93 µM.

And the inhibition at 2 h (ABCG2 (BCRP) [3])?
Its inhibition at 2 h is no less than 25%.

For COc1ccc(NC(=O)COc2ccc(C(=O)/C=C/c3cc(OC)c(OC)c(OC)c3)cc2)cc1OC, which IC50 [4] is on record?
Its IC50 is 12.5 µM.

And the selectivity ratio (ABCG2 (BCRP) [5])?
The selectivity ratio was 8.2.

And the GI50 at 72 h [6]?
Its GI50 at 72 h is 27.7 µM.

What about the GI50 at 72 h [7] of the same molecule?
Its GI50 at 72 h is 18.9 µM.

And the IC50 [2]?
The IC50 was 3.37 µM.

What about the inhibition at 2 h (ABCG2 (BCRP) [3]) of the same molecule?
Its inhibition at 2 h is no less than 25%.

With Cc1ccc(-c2c(OCC(=O)Nc3cccc4ccccc34)oc3ccccc3c2=O)cc1 as the molecule, how does the GI50 at 72 h [8] read?
The GI50 at 72 h was 68.7 µM.

What about the IC50 [1] of the same molecule?
Its IC50 is 1.89 µM.

What about the GI50 at 72 h [9] of the same molecule?
The GI50 at 72 h was 98.6 µM.

And the selectivity ratio (ABCB1 (P-gp) [10])?
Its selectivity ratio is 52.2.

What about the “inhibition (INH)” value [11] of the same molecule?
Its value is “Not Active”.

With O=C(COc1c(-c2ccccc2Cl)oc2ccccc2c1=O)Nc1ccc2c(c1)COC2=O as the molecule, how does the GI50 at 72 h [8] read?
Its GI50 at 72 h is 61.1 µM.

And the IC50 [1]?
Its IC50 is 5.01 µM.

What about the selectivity ratio (ABCG2 (BCRP) [5]) of the same molecule?
Its selectivity ratio is 19.4.

What about the GI50 at 72 h [6] of the same molecule?
Its GI50 at 72 h is 56.3 µM.

And the GI50 at 72 h [7]?
The GI50 at 72 h was 67.6 µM.

And the IC50 [2]?
The IC50 was 2.9 µM.

And the GI50 at 72 h [9]?
The GI50 at 72 h was 69.2 µM.

What about the selectivity ratio (ABCB1 (P-gp) [10]) of the same molecule?
The selectivity ratio was 13.8.

What about the inhibition at 2 h (ABCG2 (BCRP) [3]) of the same molecule?
Its inhibition at 2 h is no less than 25%.

Which Emax at 1 h (ABCB1 (P-gp) [12]) does the source give for COc1ccc(-c2c(OCC(=O)Nc3cccc4ccccc34)oc3ccccc3c2=O)cc1 here?
Its Emax at 1 h is 51%.

What about the IC50 [1] of the same molecule?
Its IC50 is 1.41 µM.

What about the selectivity ratio (ABCG2 (BCRP) [5]) of the same molecule?
The selectivity ratio was greater than 19.6.

And the GI50 at 72 h [6]?
The GI50 at 72 h was greater than 100 µM.

And the GI50 at 72 h [7]?
Its GI50 at 72 h is greater than 100 µM.

What about the IC50 [2] of the same molecule?
The IC50 was 5.09 µM.

And the inhibition at 2 h (ABCG2 (BCRP) [3])?
Its inhibition at 2 h is no less than 25%.

Which results are given for COc1ccc(-c2c(OCC(=O)Nc3cccc4ccccc34)oc3ccccc3c2=O)cc1OC?
GI50 at 72 h [8]: 43.6 µM; IC50 [1]: 5.43 µM; selectivity ratio (ABCG2 (BCRP) [5]): > 26.7; GI50 at 72 h [6]: > 100 µM; GI50 at 72 h [7]: > 100 µM; IC50 [2]: 3.75 µM; GI50 at 72 h [9]: 45.3 µM; selectivity ratio (ABCB1 (P-gp) [10]): 8.3; inhibition at 2 h (ABCG2 (BCRP) [3]): ≥ 25%
